Test results: article PMC7356613, “Unsymmetrically-Substituted 5,12-dihydrodibenzo[b,f][1,4]diazocine-6,11-dione Scaffold—A Useful Tool for Bioactive Molecules Design” (Molecules, 2020)
Read-outs that look alike come from different tables or passages of the source.

Key:
[1] = test system: EUFA30 cells (non-cancerous human fibroblasts); experiment: Alamar Blue cytotoxicity assay, EUFA30; type: cell-based; conditions: Fibroblast; for inhibition at 300 µM: bracketed values, read-out: proliferation inhibition expressed as a percentage at highest concentration used; for IC50: read-out: IC50 based on survival of cells
Protocol: (§1) HeLa, U87, BICR18, EUFA30 cell lines were cultured in DMEM medium (Life Technology) supplemented with 10% fetal bovine serum (Life Technology) and 0.1% antibiotics, penicillin and streptomycin (Life Technology). Cells were grown in a humidified atmosphere of CO2/air (5/95%) at 37 °C.
(§2) Exponentially growing cells were seeded onto a 96-well plate at the density of 2 × 10^3 cells/well, cultured for 18 h, and treated with newly synthesized derivatives at concentrations 1–300 µM, or with DMSO as a control, for 24 or 48 h. Alamar Blue (Invitrogen) was added accordingly to manufacturer protocol. After 4 h, light emission at 590 nm was measured with excitation at 560 nm using a scanning multiwell spectrophotometer (DTX 880, Beckman Coulter). The experiments were carried out at least three times with three replicates for each inhibitor concentration. After background subtraction, inhibition rate, IC50 was calculated as the concentration of the component inhibiting cell growth by 50%. All the calculations were performed using Origin 9.0 software.

[2] = test system: HeLa cells (cervix adenocarcinoma); experiment: Alamar Blue cytotoxicity assay, HeLa; type: cell-based; conditions: Homo sapiens; for inhibition at 300 µM: bracketed values, read-out: proliferation inhibition expressed as a percentage at highest concentration used; for IC50: read-out: IC50 based on survival of cells
Protocol: as §1, §2

[3] = test system: BICR18 cells (laryngeal squamous cell carcinoma); experiment: Alamar Blue cytotoxicity assay, BICR18; type: cell-based; conditions: for inhibition at 300 µM: bracketed values, read-out: proliferation inhibition expressed as a percentage at highest concentration used; for IC50: read-out: IC50 based on survival of cells
Protocol: as §1, §2

[4] = test system: U87 cells (human primary glioblastoma); experiment: Alamar Blue cytotoxicity assay, U87; type: cell-based; conditions: U-87 MG; for inhibition at 300 µM: bracketed values, read-out: proliferation inhibition expressed as a percentage at highest concentration used; for IC50: read-out: IC50 based on survival of cells
Protocol: as §1, §2

HeLa cells = experiment: Annexin V-FITC / propidium iodide flow cytometry, HeLa; type: cell-based; conditions: 24 h; for number of necrotic cells: 200 µM, non-treated control 5.4%
Protocol: as §1
(§3) The Annexin V-FITC apoptosis detection kit (BD Biosciences) was used to detect apoptosis by flow cytometry. Cells were seeded at Petri dishes, cultured for 18 h with tested agents applied for 24 h. DMSO was added as the non-treated control and camptothecin (CPT) as the positive control. Subsequently, cells were washed with PBS, resuspended in binding buffer at a concentration of 2 × 10^6 cells/mL, and anti-Annexin V FITC-conjugated antibody and propidium iodide were added to 100 µL aliquots. The mixtures were incubated for 15 min at room temperature, supplemented with binding buffer to 500 µL and processed by BD FACSCalibur (BD Biosciences). Data were analyzed in Flowing Software version 2.5.1 (Flowing Software, http://www.uskonaskel.fi/flowingsoftware).

[5] = test system: EUFA30, HeLa, BICR18, U87 cells; experiment: Alamar Blue cytotoxicity assay, statements over all tested cell lines; type: cell-based; conditions: Homo sapiens, concentrations 1-300 µM, group range = lowest to highest value, read-out: IC50 across the tested cell lines
Protocol: as §1, §2

EUFA30 cells = experiment: Annexin V-FITC / propidium iodide flow cytometry, EUFA30; type: cell-based, human; conditions: 24 h
Protocol: as §1, §3

[6] = EUFA30, 200 µM, non-treated control 0.3%
[7] = EUFA30, 200 µM, non-treated control 0.4%
[8] = EUFA30, 200 µM, non-treated control 5.7%
[9] = EUFA30, positive control, 10 μM

| Compound | melting point | inhibition at 300 µM ([1]; EUFA30, 24 h) [%] | inhibition at 300 µM ([1]; EUFA30, 48 h) [%] | inhibition at 300 µM ([2]; 24 h) [%] | inhibition at 300 µM ([2]; 48 h) [%] | inhibition at 300 µM ([3]; BICR18, 24 h) [%] | inhibition at 300 µM ([4]; U87, 24 h) [%] | inhibition at 300 µM ([3]; BICR18, 48 h) [%] | inhibition at 300 µM ([4]; U87, 48 h) [%] | other results |
| --- | --- | --- | --- | --- | --- | --- | --- | --- | --- | --- |
| O=C(c1ccccc1)c1ccc2c(c1)NC(=O)c1ccccc1C(=O)N2 [Compound 3c, 2-benzoyl-5,12-dihydrodibenzo[b,f][1, 4]diazocine-6,11-dione] | 156 to 157 °C | 28.8 | – | 14.5 | – | 10 | 15 | – | – | – |
| CN1C(=O)c2ccccc2C(=O)Nc2ccccc21 [Compound 3e, 5-methyl-5,12-dihydrodibenzo[b,f][1,4]diazocine-6,11-dione] | 206 to 207 °C | 31.6 | 17.5 | 19.8 | 5.7 | 22.7 | 34.1 | – | – | – |
| CN1C(=O)c2ccccc2C(=O)Nc2cc(Cl)c(Cl)cc21 [Compound 3f, 2,3-dichloro-5-methyl-5,12-dihydrodibenzo[b,f][1,4]diazocine-6,11-dione] | – | – | 19.1 | – | 7.8 | 47.5 | – | 7.6 | 29.9 | number of necrotic cells (HeLa cells): 15.3%; IC50 ([1]; EUFA30, 24 h of treatment): 320 ± 36 µM; IC50 ([2]; 24 h of treatment): 298 ± 11 µM; IC50 [5]: 93.7 to 323 µM; IC50 ([4]; U87, 24 h of treatment): 207 ± 23.6 µM; dead cell fraction: early apoptosis (EUFA30 cells; [6]): 6.9%; dead cell fraction: late apoptosis (EUFA30 cells; [7]): 1.6%; dead cell fraction: necrosis (EUFA30 cells; [8]): 4.3% |
| CN1C(=O)c2cc(Cl)c(Cl)cc2C(=O)Nc2ccccc21 [Compound 3g, 8,9-dichloro-5-methyl-5,12-dihydrodibenzo[b,f][1,4]diazocine-6,11-dione] | – | 41.6 | 29.5 | 43.1 | 5.3 | – | – | 12.3 | 2.4 | number of necrotic cells (HeLa cells): 8.8%; IC50 [5]: 93.7 to 323 µM; IC50 ([3]; BICR18, 24 h of treatment): 266 ± 27.6 µM; IC50 ([4]; U87, 24 h of treatment): 323 ± 23.9 µM; dead cell fraction: early apoptosis (EUFA30 cells; [6]): 5.0%; dead cell fraction: late apoptosis (EUFA30 cells; [7]): 1.5%; dead cell fraction: necrosis (EUFA30 cells; [8]): 6.8% |
| CN1C(=O)c2c(Cl)c(Cl)c(Cl)c(Cl)c2C(=O)Nc2ccccc21 [Compound 3h, 7,8,9,10-tetrachloro-5-methyl-5,12-dihydrodibenzo[b,f][1,4]diazocine-6,11-dione] | – | – | – | – | – | – | – | – | – | number of necrotic cells (HeLa cells): 15.3%; IC50 ([1]; EUFA30, 24 h of treatment): 144 ± 10.6 µM; IC50 ([1]; EUFA30, 48 h of treatment, N.A. = not active): 153 ± 4.1 µM; IC50 ([2]; 24 h of treatment): 132 ± 6 µM; IC50 ([2]; 48 h of treatment, N.A. = not active): 251 ± 5.1 µM; IC50 [5]: 93.7 to 323 µM; IC50 ([3]; BICR18, 24 h of treatment): 93.7 ± 5.2 µM; IC50 ([3]; BICR18, 48 h of treatment, N.A. = not active): 178 ± 3 µM; IC50 ([4]; U87, 24 h of treatment): 97.1 ± 13.2 µM; IC50 ([4]; U87, 48 h of treatment, N.A. = not active): 294 ± 22.4 µM; dead cell fraction: early apoptosis (EUFA30 cells; [6]): 9.0%; dead cell fraction: late apoptosis (EUFA30 cells; [7]): 1.8%; dead cell fraction: necrosis (EUFA30 cells; [8]): 15.6% |
| CN1C(=O)c2cscc2C(=O)Nc2ccccc21 [Compound 3i, 5-methyl-5,10-dihydrobenzo[b]thieno[3,4-f][1,4]diazocine-4,11-dione] | 241 to 242 °C | 29.4 | 1.5 | 14.8 | 1.6 | 24 | 36.6 | – | 2.8 | – |
| CN(C)CCN1C(=O)c2ccccc2C(=O)N(Cc2ccccc2)c2ccccc21 [Compound 3m, 5-benzyl-12-(2-(dimethylamino)ethyl)-5,12-dihydrodibenzo[b,f][1,4]diazocine-6,11-dione] | 154 to 155 °C | 42.2 | 9.9 | 23.4 | – | 30.1 | 36.8 | 4.7 | 4.1 | – |
| Nc1ccccc1N1C(=O)c2ccccc2C1=O [Compound 10, 2-(2-aminophenyl)isoindoline-1,3-dione] | 195 to 196 °C | 25.6 | – | 4.9 | – | 11.4 | 22.9 | – | – | – |
| CC[C@@]1(O)C(=O)OCc2c1cc1n(c2=O)Cc2cc3ccccc3nc2-1 [camptothecin, reference compound] | – | – | – | – | – | – | – | – | – | necrotic cells (HeLa cells; positive control, 10 μM): 31.2%; dead cell fraction: early apoptosis (EUFA30 cells; [9]): 4.1%; dead cell fraction: late apoptosis (EUFA30 cells; [9]): 6.8%; dead cell fraction: necrosis (EUFA30 cells; [9]): 18.7% |

Second part, led by results:

| melting point | Compound | inhibition at 300 µM ([1]; EUFA30, 24 h) [%] | inhibition at 300 µM ([1]; EUFA30, 48 h) [%] | inhibition at 300 µM ([2]; 24 h) [%] | inhibition at 300 µM ([2]; 48 h) [%] | inhibition at 300 µM ([3]; BICR18, 24 h) [%] | inhibition at 300 µM ([4]; U87, 24 h) [%] | inhibition at 300 µM ([3]; BICR18, 48 h) [%] | inhibition at 300 µM ([4]; U87, 48 h) [%] | other results |
| --- | --- | --- | --- | --- | --- | --- | --- | --- | --- | --- |
| 286 to 287 °C | O=C1Nc2ccccc2NC(=O)c2ccccc21 [Compound 3a, 5,12-dihydrodibenzo[b,f][1,4]diazocine-6,11-dione] | 21.2 | 9 | 20.7 | 1.5 | 7.1 | 17.6 | – | – | – |
| 230 °C (dec.) | O=C1Nc2ccc([N+](=O)[O-])cc2NC(=O)c2ccccc21 [Compound 3b, 2-nitro-5,12-dihydrodibenzo[b,f][1,4]diazocine-6,11-dione] | 31 | 18.6 | 33.2 | 4.7 | 2.2 | 10.4 | – | – | – |
| 243 to 244 °C | O=C1Nc2ccccc2NC(=O)c2cc([N+](=O)[O-])ccc21 [Compound 3d, 8-nitro-5,12-dihydrodibenzo[b,f][1,4]diazocine-6,11-dione] | 9.2 | 4.2 | 23.4 | 3.9 | 25.1 | 27.5 | 2.5 | – | – |
| 205 to 206 °C | O=C1Nc2ccccc2N(Cc2ccccc2)C(=O)c2ccccc21 [Compound 3j, 5-benzyl-5,12-dihydrodibenzo[b,f][1,4]diazocine-6,11-dione] | 33.2 | 32.6 | 34.3 | 3.3 | 42.2 | 33 | 6.1 | – | IC50 [5]: > 300 µM |
| 242 to 243 °C | CCOC(=O)c1cc2c(cc1C(=O)OCC)C(=O)Nc1ccccc1NC2=O [Compound 3k, diethyl 6,11-dioxo-5,6,11,12-tetrahydrodibenzo[b,f][1,4]diazocine-8,9-dicarboxylate] | 36.7 | – | 28.2 | – | 16.8 | 37.2 | 5.6 | 3.1 | – |
| 265 to 266 °C | CN1C(=O)c2ccccc2C(=O)N(C)c2ccccc21 [Compound 3l, 5,12-dimethyl-5,12-dihydrodibenzo[b,f][1,4]diazocine-6,11-dione] | 38.1 | 19.5 | 29.5 | 2.8 | 22.1 | 39 | – | – | – |
| 244 to 245 °C | O=C1CCC(=O)Nc2ccccc2N1 [Compound 6, 1,3,4,6-tetrahydrobenzo[b][1,4]diazocine-2,5-dione] | 29.4 | 14 | 21.5 | 4.3 | 11.3 | 19.6 | – | – | – |
